According to ChEMBL document CHEMBL5143734, “Seco-Lupane Triterpene Derivatives Induce Ferroptosis through GPX4/ACSL4 Axis and Target Cyclin D1 to Block the Cell Cycle” (J Med Chem, 2022):

Key:
Assay type in all cases: functional, cell-based
MCF7 = test: Cytotoxicity against human MCF7 cells assessed as reduction in cell viability by CCK-8 assay
A549 = test: Cytotoxicity against human A549 cells assessed as reduction in cell viability by CCK-8 assay
HepG2 = test: Cytotoxicity against human HepG2 cells assessed as reduction in cell viability by CCK-8 assay
PC-3M = test: Cytotoxicity against human PC-3M cells assessed as reduction in cell viability by CCK-8 assay
PANC-1 = test: Cytotoxicity against human PANC-1 cells assessed as reduction in cell viability by CCK-8 assay

Compound	IC50 (MCF7)	IC50 (A549)	IC50 (HepG2)	IC50 (PC-3M)	IC50 (PANC-1)
C=C(C)[C@@H]1CC[C@]2(C(=O)OCCCCCCn3cc(CCN)c4ccccc43)CC[C@]3(C)[C@H](C[C@@H](O)[C@@H]4[C@@]5(C)C(CC(=O)OC)OC(C)(C)C5CC[C@]43C)[C@@H]12 (stereo not given in full)	24.5 µM	5.97 µM	1.91 µM	3.99 µM	7.06 µM
C=C(C)[C@@H]1CC[C@]2(C(=O)OCCCCn3ccnc3C)CC[C@]3(C)[C@H](C[C@@H](O)[C@@H]4[C@@]5(C)C(CC(=O)OC)OC(C)(C)C5CC[C@]43C)[C@@H]12 (stereo not given in full)	67.3 µM	31.4 µM	21.7 µM	36 µM	48.3 µM
C=C(C)[C@@H]1CC[C@]2(C(=O)OCCCCCCCCCCn3cnc(C)c3)CC[C@]3(C)[C@H](C[C@H]4OC(=O)C[C@@H](O)[C@]5(C)[C@@H]4[C@@]3(C)CC[C@H]5C(=C)C)[C@@H]12	35.8 µM	16.7 µM	5.79 µM	13.9 µM	9.92 µM
C=C(C)[C@@H]1CC[C@]2(C(=O)OCCCCCn3ccnc3C)CC[C@]3(C)[C@H](C[C@@H](O)[C@@H]4[C@@]5(C)C(CC(=O)OC)OC(C)(C)C5CC[C@]43C)[C@@H]12 (stereo not given in full)	53.8 µM	34.5 µM	20.2 µM	37.8 µM	43.1 µM
C=C(C)[C@@H]1CC[C@]2(C(=O)OCCCCCCCCCCBr)CC[C@]3(C)[C@H](C[C@H]4OC(=O)C[C@@H](O)[C@]5(C)[C@@H]4[C@@]3(C)CC[C@H]5C(=C)C)[C@@H]12	53.9 µM	22 µM	10.9 µM	17.3 µM	23.1 µM
C=C(C)[C@@H]1CC[C@]2(C(=O)OCCCCn3cnc(C)c3)CC[C@]3(C)[C@H](C[C@H]4OC(=O)C[C@@H](O)[C@]5(C)[C@@H]4[C@@]3(C)CC[C@H]5C(=C)C)[C@@H]12	45.3 µM	20 µM	16 µM	15.5 µM	29.2 µM
C=C(C)[C@@H]1CC[C@]2(C(=O)OCCCCn3ccnc3CC)CC[C@]3(C)[C@H](C[C@H]4OC(=O)C[C@@H](O)[C@]5(C)[C@@H]4[C@@]3(C)CC[C@H]5C(=C)C)[C@@H]12	91.1 µM	19.5 µM	14.6 µM	12.1 µM	16.1 µM
C=C(C)[C@@H]1CC[C@]2(C(=O)OCCCCCBr)CC[C@]3(C)[C@H](C[C@@H](O)[C@@H]4[C@@]5(C)C(CC(=O)OC)OC(C)(C)C5CC[C@]43C)[C@@H]12 (stereo not given in full)	80 µM	40.6 µM	27.7 µM	44.1 µM	54.9 µM
C=C(C)[C@@H]1CC[C@]2(C(=O)OCCCCBr)CC[C@]3(C)[C@H](C[C@@H](O)[C@@H]4[C@@]5(C)C(CC(=O)OC)OC(C)(C)C5CC[C@]43C)[C@@H]12 (stereo not given in full)	82 µM	46 µM	27.6 µM	53.3 µM	72.8 µM
C=C(C)[C@@H]1CC[C@]2(C(=O)OCCCCCCCCCCn3cc(CCN)c4ccccc43)CC[C@]3(C)[C@H](C[C@@H](O)[C@@H]4[C@@]5(C)C(CC(=O)OC)OC(C)(C)C5CC[C@]43C)[C@@H]12 (stereo not given in full)	25.5 µM	7.97 µM	2.11 µM	5.7 µM	5.63 µM
C=C(C)[C@@H]1CC[C@]2(C(=O)OCCCCCn3ccnc3CC)CC[C@]3(C)[C@H](C[C@H]4OC(=O)C[C@@H](O)[C@]5(C)[C@@H]4[C@@]3(C)CC[C@H]5C(=C)C)[C@@H]12	50.2 µM	14.3 µM	6.1 µM	12.5 µM	12.8 µM
C=C(C)[C@@H]1CC[C@]2(C(=O)OCCCCn3ccnc3)CC[C@]3(C)[C@H](C[C@@H](O)[C@@H]4[C@@]5(C)C(CC(=O)OC)OC(C)(C)C5CC[C@]43C)[C@@H]12 (stereo not given in full)	75.2 µM	36.7 µM	26 µM	44.3 µM	53.4 µM
C=C(C)[C@@H]1CC[C@]2(C(=O)OCCCCCCBr)CC[C@]3(C)[C@H](C[C@H]4OC(=O)C[C@@H](O)[C@]5(C)[C@@H]4[C@@]3(C)CC[C@H]5C(=C)C)[C@@H]12	75.7 µM	27.6 µM	12.3 µM	16.1 µM	21.8 µM
C=C(C)[C@@H]1CC[C@]2(C(=O)OCCCn3ccnc3C)CC[C@]3(C)[C@H](C[C@@H](O)[C@@H]4[C@@]5(C)C(CC(=O)OC)OC(C)(C)C5CC[C@]43C)[C@@H]12 (stereo not given in full)	69.5 µM	24.9 µM	22.6 µM	34.4 µM	50.6 µM
C=C(C)[C@@H]1CC[C@]2(C(=O)OCCCCCCn3cc(CCN)c4ccccc43)CC[C@]3(C)[C@H](C[C@H]4OC(=O)C[C@@H](O)[C@]5(C)[C@@H]4[C@@]3(C)CC[C@H]5C(=C)C)[C@@H]12	5.87 µM	6.5 µM	1.03 µM	6 µM	7.02 µM
C=C(C)[C@@H]1CC[C@]2(C(=O)OCCCCBr)CC[C@]3(C)[C@H](C[C@H]4OC(=O)C[C@@H](O)[C@]5(C)[C@@H]4[C@@]3(C)CC[C@H]5C(=C)C)[C@@H]12	> 200 µM	89 µM	124 µM	82.2 µM	200 µM
C=C(C)[C@@H]1CC[C@]2(C(=O)O)CC[C@]3(C)[C@H](C[C@@H](O)[C@@H]4[C@@]5(C)C(CC(=O)OC)OC(C)(C)C5CC[C@]43C)[C@@H]12 (stereo not given in full)	> 200 µM	> 200 µM	> 200 µM	103 µM	> 200 µM
C=C(C)[C@@H]1CC[C@]2(C(=O)OCCCCCn3cc(CCN)c4ccccc43)CC[C@]3(C)[C@H](C[C@@H](O)[C@@H]4[C@@]5(C)C(CC(=O)OC)OC(C)(C)C5CC[C@]43C)[C@@H]12 (stereo not given in full)	18.1 µM	6.63 µM	1.7 µM	3.87 µM	5.81 µM
C=C(C)[C@@H]1CC[C@]2(C(=O)OCCCn3ccnc3CC)CC[C@]3(C)[C@H](C[C@@H](O)[C@@H]4[C@@]5(C)C(CC(=O)OC)OC(C)(C)C5CC[C@]43C)[C@@H]12 (stereo not given in full)	66.2 µM	27.4 µM	18.9 µM	24.9 µM	47.7 µM
C=C(C)[C@@H]1CC[C@]2(C(=O)OCCCCCCn3ccnc3C)CC[C@]3(C)[C@H](C[C@@H](O)[C@@H]4[C@@]5(C)C(CC(=O)OC)OC(C)(C)C5CC[C@]43C)[C@@H]12 (stereo not given in full)	29.9 µM	25.4 µM	12 µM	20.9 µM	18.7 µM
C=C(C)[C@@H]1CC[C@]2(C(=O)OCCCCCCn3ccnc3)CC[C@]3(C)[C@H](C[C@H]4OC(=O)C[C@@H](O)[C@]5(C)[C@@H]4[C@@]3(C)CC[C@H]5C(=C)C)[C@@H]12	47.1 µM	24 µM	14.5 µM	23.2 µM	45.3 µM
C=C(C)[C@@H]1CC[C@]2(C(=O)OCCCCCCCCCCn3ccnc3C)CC[C@]3(C)[C@H](C[C@H]4OC(=O)C[C@@H](O)[C@]5(C)[C@@H]4[C@@]3(C)CC[C@H]5C(=C)C)[C@@H]12	23.5 µM	11.7 µM	3.02 µM	8.63 µM	10.1 µM
